Results published in the supplement of paper PMC11451515.

System: SEM cells
Test: cell viability relative to DMSO control; higher = less cytotoxic
Settings: 48 h
How it was run: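 NOMO1 or SEM (500 cells/well) or P12-Ichikawa (1000 cells/well) leukemia cells were adapted for at least four passages in each medium. They were seeded in 1536-well plates (5 μl) and pin-dosed with library compounds in DMSO over an 11-point threefold series, 47 μM to 0.79 nM. CellTiter-Glo One luminescence was read after 48 h at 37°C. Viability is the per-plate percentage relative to DMSO wells, with cell-free wells as background.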

[1] = HPLM + 10% dialyzed FBS, 0.000781 µM
[2] = HPLM + 10% dialyzed FBS, 0.00234 µM
[3] = HPLM + 10% dialyzed FBS, 0.00702 µM
[4] = HPLM + 10% dialyzed FBS, 0.0211 µM
[5] = HPLM + 10% dialyzed FBS, 0.0632 µM
[6] = HPLM + 10% dialyzed FBS, 0.19 µM
[7] = HPLM + 10% dialyzed FBS, 0.569 µM
[8] = HPLM + 10% dialyzed FBS, 1.71 µM
[9] = HPLM + 10% dialyzed FBS, 5.12 µM
[10] = HPLM + 10% dialyzed FBS, 15.4 µM
[11] = HPLM + 10% dialyzed FBS, 46.1 µM
[12] = RPMI 5 mM glucose + 10% FBS, 0.000781 µM
[13] = RPMI 5 mM glucose + 10% FBS, 0.00234 µM
[14] = RPMI 5 mM glucose + 10% FBS, 0.00702 µM
[15] = RPMI 5 mM glucose + 10% FBS, 0.0211 µM
[16] = RPMI 5 mM glucose + 10% FBS, 0.0632 µM
[17] = RPMI 5 mM glucose + 10% FBS, 0.19 µM
[18] = RPMI 5 mM glucose + 10% FBS, 0.569 µM
[19] = RPMI 5 mM glucose + 10% FBS, 1.71 µM
[20] = RPMI 5 mM glucose + 10% FBS, 5.12 µM
[21] = RPMI 5 mM glucose + 10% FBS, 15.4 µM
[22] = RPMI 5 mM glucose + 10% FBS, 46.1 µM
[23] = RPMI 5 mM glucose + 10% dialyzed FBS, 0.000781 µM
[24] = RPMI 5 mM glucose + 10% dialyzed FBS, 0.00234 µM
[25] = RPMI 5 mM glucose + 10% dialyzed FBS, 0.00702 µM
[26] = RPMI 5 mM glucose + 10% dialyzed FBS, 0.0211 µM
[27] = RPMI 5 mM glucose + 10% dialyzed FBS, 0.0632 µM
[28] = RPMI 5 mM glucose + 10% dialyzed FBS, 0.19 µM
[29] = RPMI 5 mM glucose + 10% dialyzed FBS, 0.569 µM
[30] = RPMI 5 mM glucose + 10% dialyzed FBS, 1.71 µM
[31] = RPMI 5 mM glucose + 10% dialyzed FBS, 5.12 µM
[32] = RPMI 5 mM glucose + 10% dialyzed FBS, 15.4 µM
[33] = RPMI 5 mM glucose + 10% dialyzed FBS, 46.1 µM

SMILES	cell viability [1]	cell viability [2]	cell viability [3]	cell viability [4]	cell viability [5]	cell viability [6]	cell viability [7]	cell viability [8]	cell viability [9]	cell viability [10]	cell viability [11]	cell viability [12]	cell viability [13]	cell viability [14]	cell viability [15]	cell viability [16]	cell viability [17]	cell viability [18]	cell viability [19]	cell viability [20]	cell viability [21]	cell viability [22]	cell viability [23]	cell viability [24]	cell viability [25]	cell viability [26]	cell viability [27]	cell viability [28]	cell viability [29]	cell viability [30]	cell viability [31]	cell viability [32]	cell viability [33]
NC(=O)c1cccc2cn(-c3ccc([C@@H]4CCCNC4)cc3)nc12	86.9%	90.8%	105%	126%	129%	98.9%	112%	116%	91.8%	63.8%	50%	97.8%	111%	113%	110%	102%	92.8%	119%	113%	120%	80.1%	32.5%	94.3%	80.8%	93.4%	106%	104%	90%	109%	124%	94.6%	66.4%	44.4%
C/C(O)=C(\C#N)C(=O)Nc1cc(Br)ccc1Br	108%	102%	112%	107%	112%	110%	107%	109%	108%	32.2%	75.4%	122%	104%	104%	106%	119%	112%	99%	113%	106%	32.8%	84.9%	112%	110%	108%	118%	107%	108%	105%	111%	99%	32%	70.5%
NC(=O)c1cccc2nc(-c3ccc([C@H]4CCCN4)cc3F)[nH]c12	86.3%	93.6%	116%	113%	113%	110%	109%	86.9%	61.6%	39.8%	21.8%	81.3%	80.4%	103%	93.7%	98.6%	97.9%	98.3%	70.4%	45.9%	31.8%	15.3%	86.2%	103%	111%	85.7%	87.8%	109%	93.1%	64.8%	36.3%	29.6%	9%
CC1=C(CC(=O)O)c2cc(F)ccc2/C1=C\c1ccc([S+](C)[O-])cc1 (stereo not given)	111%	121%	130%	125%	127%	125%	126%	109%	108%	104%	76.7%	96.6%	86.7%	98.5%	95.8%	90.3%	106%	83.6%	90.7%	79.6%	71.9%	63.4%	126%	118%	119%	118%	130%	115%	105%	107%	95.9%	99.8%	74.3%
Cc1cc(C(=O)N2CCN(c3cccc(Cl)c3)CC2)n(-c2ccccc2)n1	109%	96.7%	102%	102%	109%	96%	92.5%	52.6%	25.5%	21.7%	18.2%	107%	118%	116%	122%	107%	110%	120%	81.5%	34.8%	17.5%	15.6%	105%	103%	112%	89.4%	114%	100%	93.3%	61.1%	24.4%	19.5%	18.3%
